Results published in patent publication EP4603105A1, “PHARMACEUTICAL COMPOSITION CONTAINING CYCLIC COMPOUND HAVING SELECTIVE KRAS INHIBITORY EFFECT AGAINST HRAS AND NRAS” (CHUGAI SEIYAKU KABUSHIKI KAISHA, priority 2022, dated 2024).
*1 amine or outer side, *2 acyl side, *3 side chain or, on linkers, in order; H or OH if unused. Where a SMILES comes first, the peptide text is derived from it. Bridges are numbered along the chain shown (N, C = ends). [ ]: non-standard residue; d: D form. The star is where a group is joined. hPhe(3-Cl-4-CF3) = N[C@@H](CCc1ccc(C(F)(F)F)c(Cl)c1)C(=O)O; X39 = O=C([C@H](Cc1ccc(C(F)(F)F)cc1)N(CC1CCC1)[*:1])[*:2]; NPrPhe(4-CF3) = CCCN[C@@H](Cc1ccc(C(F)(F)F)cc1)C(=O)O; NMeGly(cPent) = CN[C@H](C(=O)O)C1CCCC1; Pro(4,4-F2) = O=C(O)[C@@H]1CC(F)(F)CN1; NMeD = CN[C@@H](CC(=O)O)C(=O)O; NMeL = CN[C@@H](CC(C)C)C(=O)O; Morpholide = C1CN(*)CCO1; NMeA = CN[C@@H](C)C(=O)O; Ac5c = NC1(C(=O)O)CCCC1; Aze = O=C(O)[C@@H]1CCN1; Ac4c = NC1(C(=O)O)CCC1; Sar = CNCC(=O)O

Key:
[1] = target: GDP-bound NRAS wild-type protein (Homo sapiens, UniProt P01111); assay: Binding to NRAS by surface plasmon resonance (SPR), KD and KD ratio to KRAS
GDP-bound NRAS wild-type protein, sequence (P01111 whole entry): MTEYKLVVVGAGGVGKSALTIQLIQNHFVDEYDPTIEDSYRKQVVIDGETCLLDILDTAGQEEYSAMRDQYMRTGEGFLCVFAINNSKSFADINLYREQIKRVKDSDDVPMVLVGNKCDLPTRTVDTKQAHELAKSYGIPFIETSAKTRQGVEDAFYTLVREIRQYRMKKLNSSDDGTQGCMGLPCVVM
Summary of the method: (§1)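 Running buffer contained 10 µM GDP and 10 mM MgCl2 to keep RAS in the GDP state, with 4% DMSO at pH 7.4. Compounds were flowed at 100 µL/min in 75 s steps of rising concentration over captured biotin-Avi RAS at 30°C. Sensorgrams were fitted 1:1 for KD.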

HRAS wild-type protein = HRAS wild-type protein (Homo sapiens, UniProt P01112); assay: Binding to HRAS by surface plasmon resonance (SPR), KD and KD ratio to KRAS
HRAS wild-type protein, sequence (P01112 whole entry): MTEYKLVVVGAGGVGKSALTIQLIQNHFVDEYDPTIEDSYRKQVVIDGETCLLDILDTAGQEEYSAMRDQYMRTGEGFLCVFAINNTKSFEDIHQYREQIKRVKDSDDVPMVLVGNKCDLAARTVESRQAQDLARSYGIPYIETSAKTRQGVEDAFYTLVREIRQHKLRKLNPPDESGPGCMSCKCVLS
Summary of the method: as §1

[2] = system: human lung cancer strain NCI-H441; format: cell-based
Summary of the method: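 Step one: dispense the test compound in serial DMSO dilutions. Step three: add the reagent and measure […].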

[3] = ratio of the KD value with respect to GDP-bound NRAS wild-type protein to the KD value with respect to KRAS
[4] = ratio of the KD value with respect to HRAS wild-type protein to the KD value with respect to KRAS
[5] = ratio of KD value for GDP-bound NRAS wild-type protein to KD value for KRAS (SPR)
[6] = ratio of KD value for HRAS wild-type protein to KD value for KRAS (SPR)
[7] = ratio of KD for GDP-bound NRAS wild-type protein to KD for KRAS
[8] = ratio of KD for HRAS wild-type protein to KD for KRAS

SMILES	NRAS /KRAS [1, 3]	HRAS /KRAS (HRAS wild-type protein; [4])	IC50 [2] [nM]	NRAS /KRAS [1, 5]	HRAS /KRAS (HRAS wild-type protein; [6])	NRAS /KRAS [1, 7]	HRAS /KRAS (HRAS wild-type protein; [8])
CC[C@H](C)[C@@H]1NC(=O)[C@H](CC(C)C)N(CC)C(=O)C[C@@H](C(=O)N2CCOCC2)N(C)C(=O)[C@H](C2CCCC2)N(C)C(=O)C2(CCCC2)NC(=O)[C@@H]2CCCN2C(=O)[C@H](CCc2cc(F)c(C(F)(F)F)c(F)c2)NC(=O)CN(C)C(=O)[C@H](Cc2ccc(C(F)(F)F)cc2)N2CCCCC[C@@H](C2=O)N(C)C(=O)CN(C)C1=O [PP0513]	B (a compound having 3 or more and less than 10 is denoted as B)	B (a compound having 3 or more and less than 10 is denoted as B)	238	–	–	–	–
CCO[C@@H]1C[C@H]2C(=O)N(C)C3(CCC3)C(=O)N(C)[C@@H](C3CCCC3)C(=O)N(C)[C@H](C(=O)N(C)C)CC(=O)N(C)[C@@H](CC)C(=O)N[C@@H]([C@@H](C)CC)C(=O)N3CCC[C@H]3C(=O)N(C)[C@H]3C/C=C\CCN(C3=O)[C@@H](Cc3ccc(C)cc3)C(=O)N(C)CC(=O)N[C@@H](CCc3cc(F)c(C(F)(F)F)c(F)c3)C(=O)N2C1 [PP1785]	–	–	6.9	A (a compound having 10 or more and less than 20 is denoted as A)	A (a compound having 10 or more and less than 20 is denoted as A)	–	–
CCO[C@@H]1C[C@H]2C(=O)NC3(CC(C)(C)C3)C(=O)N(C)[C@@H](C3CCCC3)C(=O)N(C)[C@H](C(=O)N(C)CC)CC(=O)N(C)[C@@H](CC)C(=O)N[C@@H]([C@@H](C)CC)C(=O)N(C)CC(=O)N(C)[C@H]3C/C=C\CCN(C3=O)[C@@H](Cc3ccc(C(F)(F)F)cc3)C(=O)N(C)CC(=O)N[C@@H](CCc3ccc(C(F)(F)F)c(OC)c3)C(=O)N2C1 [PP1653]	–	–	1.6	A (a compound having 10 or more and less than 20 is denoted as A)	A (a compound having 10 or more and less than 20 is denoted as A)	–	–
CCC[C@H]1C(=O)N[C@@H]([C@@H](C)CC)C(=O)N(C)CC(=O)N(C)[C@H]2C/C=C\CCN(C2=O)[C@@H](Cc2ccc(C)cc2)C(=O)N(C)CC(=O)N[C@@H](CCc2ccc(C(F)(F)F)c(Cl)c2)C(=O)N2C[C@H](OCC)C[C@H]2C(=O)NC2(CC(C)(C)C2)C(=O)N(C)[C@@H](C2CCCC2)C(=O)N(C)[C@H](C(=O)N(C)C)CC(=O)N1C [PP1896]	–	–	5.3	A (a compound having 10 or more and less than 20 is denoted as A)	B (a compound having 3 or more and less than 10 is denoted as B)	–	–
CCCN1C(=O)CN(C)C(=O)CNC(=O)[C@H]([C@@H](C)CC)NC(=O)[C@H](CC(C)C)N(C)C(=O)C[C@@H](C(=O)N2CCOCC2)NC(=O)[C@H](C2CCCC2)N(C)C(=O)C2(CCC2)NC(=O)[C@@H]2CC(F)(F)CN2C(=O)[C@H](CCc2ccc(C(F)(F)F)c(Cl)c2)NC(=O)CN(C)C(=O)[C@@H]1Cc1ccc(C(F)(F)F)cc1 [PP0328] ([NMeL]IG[Sar][NPrPhe(4-CF3)][Sar][hPhe(3-Cl-4-CF3)][Pro(4,4-F2)][Ac4c][NMeGly(cPent)]D-Morpholide; lactam N-11)	–	–	243	–	–	B (a compound having 3 or more and less than 10 is denoted as B)	B (a compound having 3 or more and less than 10 is denoted as B)
CCO[C@@H]1C[C@H]2C(=O)NC3(CCC3)C(=O)N(C)[C@@H](C3CCCC3)C(=O)N(C)[C@H](C(=O)N3CCOCC3)CC(=O)N(C)[C@@H](CC)C(=O)N[C@@H]([C@@H](C)CC)C(=O)N(C)CC(=O)N(C)[C@H]3C/C=C\CCN(C3=O)[C@@H](Cc3ccc(C(F)(F)F)cc3)C(=O)N(C)CC(=O)N[C@@H](CCc3cc(F)c(C(F)(F)F)c(F)c3)C(=O)N2C1 [PP1092]	–	–	15.8	–	–	A (a compound having 10 or more and less than 20 is denoted as A)	A (a compound having 10 or more and less than 20 is denoted as A)
CCC[C@H]1C(=O)N[C@@H]([C@@H](C)CC)C(=O)N2CCC[C@H]2C(=O)N(C)[C@H]2C/C=C\CCN(C2=O)[C@@H](Cc2ccc(C)cc2)C(=O)N(C)CC(=O)N[C@@H](CCc2ccc(C(F)(F)F)c(OC)c2)C(=O)N2C[C@H](OCC)C[C@H]2C(=O)N(C)C2(CCC2)C(=O)N(C)[C@@H](C(CC)CC)C(=O)N(C)[C@H](C(=O)N(C)C)CC(=O)N1C [PP2329]	A (a compound having 10 or more and less than 20 is denoted as A)	A (a compound having 10 or more and less than 20 is denoted as A)	6.5	–	–	–	–
CCO[C@@H]1C[C@H]2C(=O)NC3(CC(C)(C)C3)C(=O)N(C)[C@@H](C(CC)CC)C(=O)N(C)[C@H](C(=O)N(C)C)CC(=O)N(C)[C@@H](COC)C(=O)N[C@@H]([C@@H](C)CC)C(=O)N(C)CC(=O)N(C)[C@H]3C/C=C\CCN(C3=O)[C@@H](Cc3ccc(C(F)(F)F)cc3)C(=O)N(C)CC(=O)N[C@@H](CCc3ccc(C(F)(F)F)c(OC)c3)C(=O)N2C1 [PP2157]	A (a compound having 10 or more and less than 20 is denoted as A)	A (a compound having 10 or more and less than 20 is denoted as A)	5.9	–	–	–	–
CC[C@H](C)[C@@H]1NC(=O)[C@H](CC(C)C)N(C)C(=O)C[C@@H](C(=O)N2CCOCC2)N(C)C(=O)[C@H](C2CCCC2)N(C)C(=O)C2(CCCC2)NC(=O)[C@@H]2CCCN2C(=O)[C@H](CCc2ccc(C(F)(F)F)c(Cl)c2)NC(=O)CN(C)C(=O)[C@H](Cc2ccc(C(F)(F)F)cc2)N(CC2CCC2)C(=O)[C@@H]2CCN2C(=O)[C@H](C)N(C)C1=O [PP0109] ([NMeL]I[NMeA][Aze][X39][Sar][hPhe(3-Cl-4-CF3)]P[Ac5c][NMeGly(cPent)][NMeD]-Morpholide; lactam N-11)	–	–	21.7	–	–	C (A compound having a KD ratio of 0.1 or more and less than 3 is denoted as C)	B (a compound having 3 or more and less than 10 is denoted as B)
CCO[C@@H]1C[C@H]2C(=O)NC3(CC(C)(C)C3)C(=O)N(C)[C@@H](C(CC)CC)C(=O)N(C)[C@H](C(=O)N(C)C)CC(=O)N(C)[C@@H](CC3CCC3)C(=O)N[C@@H]([C@@H](C)CC)C(=O)N(C)CC(=O)N(C)[C@H]3C/C=C\CCN(C3=O)[C@@H](Cc3ccc(C(F)(F)F)cc3)C(=O)N(C)CC(=O)N[C@@H](CCc3ccc(C(F)(F)F)c(OC)c3)C(=O)N2C1 [PP2164]	A (a compound having 10 or more and less than 20 is denoted as A)	A (a compound having 10 or more and less than 20 is denoted as A)	14.2	–	–	–	–
CCC[C@H]1C(=O)N[C@@H]([C@@H](C)CC)C(=O)N(C)CC(=O)N(C)[C@H]2C/C=C\CCN(C2=O)[C@@H](Cc2ccc(C(F)(F)F)cc2)C(=O)N(C)CC(=O)N[C@@H](CCc2ccc(C(F)(F)F)c(Cl)c2)C(=O)N2C[C@H](OCC)C[C@H]2C(=O)NC2(CC(C)(C)C2)C(=O)N(C)[C@@H](CC(F)(F)F)C(=O)N(C)[C@H](C(=O)N(C)C)CC(=O)N1C [PP2975]	–	–	16.7	–	–	A (a compound having 10 or more and less than 20 is denoted as A)	A (a compound having 10 or more and less than 20 is denoted as A)
CCCO[C@@H]1C[C@H]2C(=O)NC3(CC(C)(C)C3)C(=O)N(C)[C@@H](C3CCCC3)C(=O)N(C)[C@H](C(=O)N(C)CC)CC(=O)N(C)[C@H]3CCCc4ccc(cc4)C[C@@H](C(=O)N(C)CC(=O)N[C@@H](CCc4ccc(Cl)c(Cl)c4)C(=O)N2C1)N1CC/C=C\C[C@@H](C1=O)N(C)C(=O)CN(C)C(=O)[C@H]([C@@H](C)CC)NC3=O [PP3089]	–	–	27	–	–	B (a compound having 3 or more and less than 10 is denoted as B)	B (a compound having 3 or more and less than 10 is denoted as B)
